Here are results for three molecules from US9221868B2, “Uridine di- or tri-phosphate derivatives and uses thereof” (BAR-ILAN UNIVERSITY, priority 2010, dated 2015).

SMILES strings stand for the structures.

Assay [1] concerns intraocular pressure in normotense rabbits. The experiment in a line: Intraocular pressure (IOP) in normotense rabbits. In kind it is in vivo, New Zealand white rabbits. The settings on record: for Reduction of IOP: applied to the cornea, 100 μM, 10 μl. As to the method: Twenty-four male New Zealand white rabbits (2.5±0.5 kg) were kept in individual cages with free access to food and water on controlled 12 h/12 h light/dark cycles. All the protocols used adhere to the Association for Research in Vision and Ophthalmology (ARVO) Statement for the Use of Animals in Ophthalmology and Vision Research and also are in accordance with the European Communities Council Directive (86/609/EEC).
Intraocular pressure (IOP) was measured by means of a TonoVET rebound tonometer supplied by Tiolat Oy (Helsinki, Finland). […] For single dose experiments, different analogues were applied unilaterally to the cornea at a concentration of 100 μM and a fixed volume of 10 μl. The contralateral eye received the same volume of saline solution (0.9% NaCl, vehicle). Two IOP measurements were taken before any analogue was instilled. Experiments were performed following a blinded design where no visible indication was given to the experimenter as to the nature of the applied solution. IOP was followed up to 8 h to study the time course of the effect. Some of the analogues were assayed over a range of doses from 1 nM to 100 μM to generate dose-response curves. For these experiments, […] was measured as the maximal response obtained with each dose of the analogue. Dose-response curves were calculated by plotting the IOP value for given concentration versus that concentration (from 1 nM to 100 μM). pD2 values were obtained by fitting the values to a dose-response-curve equation according to ORIGIN8.0 software. With the pD2 value it was possible to calculate the EC50 by multiplying by −1 and then take the antilogarithm. The obtained value is the EC50 expressed in molar concentration. In all experiments, on any given day, only a single dose was tested on a single animal, which was washed out at least 2 days between doses. […]
All data are presented as the means±s.e.m. Significant differences were determined by two-tailed Student's t-tests. […]

The target of another assay is T1, P2Y6-R (Homo sapiens, UniProt Q15077).
T1 construct: expressed in transfected cells; host or cells: 1321N1 astrocytoma cells
T1 sequence (Q15077 whole entry): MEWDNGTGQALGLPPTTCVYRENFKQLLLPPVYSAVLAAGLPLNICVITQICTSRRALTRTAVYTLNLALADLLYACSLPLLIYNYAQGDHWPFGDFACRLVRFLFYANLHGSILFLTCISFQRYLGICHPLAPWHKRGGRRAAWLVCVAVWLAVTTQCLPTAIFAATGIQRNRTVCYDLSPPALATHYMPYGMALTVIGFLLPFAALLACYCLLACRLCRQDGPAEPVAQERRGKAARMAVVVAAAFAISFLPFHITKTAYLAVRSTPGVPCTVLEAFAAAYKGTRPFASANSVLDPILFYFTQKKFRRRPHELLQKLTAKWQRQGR
The experiment in a line: [Ca2+]i increase in 1321N1 astrocytoma cells expressing P2Y6-R. In kind it is cell-based. The settings on record: for EC50: 1321N1 astrocytoma cells, [Ca2+]i, read-out: Potencies (EC50) at the P2Y6-R. As to the method:
Green fluorescent protein (GFP) constructs of human P2Y2-R, P2Y4-R and P2Y6-R were expressed in 1321N1 astrocytoma cells, which lack endogenous expression of P2X- and P2Y-receptors. The respective cDNA of the receptor gene was cloned into a pEGFPN1 vector. After transfection using FuGENE 6 Transfection Reagent (Roche Molecular Biochemicals, Mannheim, Germany), the cells were selected with 0.5 mg/ml G418 (geneticine; Merck Chemicals, Darmstadt, Germany) and grown in Dulbecco's modified Eagles' medium (DMEM) supplemented with 10% fetal calf serum, 100 U/ml penicillin and […] at 37° C. and 5% CO2. The expression and cell membrane localization of the respective P2Y receptors was confirmed through the analysis of the GFP fluorescence. The functionality of the expressed GFP-labeled receptor in cells was verified by recording a change of [Ca^2+]i after stimulation with the appropriate receptor agonist.
1321N1 astrocytoma cells transfected with the respective plasmid for P2YR-GFP expression plated on coverslips (22 mm diameter) and grown to approximately 80% density were incubated with 2 μM fura 2/AM and 0.02% pluronic acid in Na-HBS buffer (Hepes buffered saline: 145 mM NaCl, 5.4 mM KCl, 1.8 mM CaCl2, 1 mM MgCl2, 25 mM glucose, 20 mM Hepes/Tris pH 7.4) for 30 min at 37° C. The cells were superfused (1 ml/min, 37° C.) with different concentrations of nucleotide in Na-HBS buffer, and the nucleotide-induced change of [Ca^2+]i was measured by detecting the respective emission intensity of fura 2/AM at 510 nm with after 340 nm and 380 nm excitations (Ubl et al., 1998). The average maximal amplitude of the responses and the respective standard errors were calculated from the ratio of the fura 2/AM fluorescence intensities with excitations at 340 nm and 380 nm (only MT-labeled cells were analysed). Microsoft Excel (Microsoft Corp., Redmond, Wash., USA) and SigmaPlot (SPSS Inc., Chicago, Ill., USA) were used to derive the concentration-response curves and EC50 values from the average response amplitudes obtained in at least three independent experiments (Ecke et al., 2006, 2008). Only cells with a clear MT-signal and with the typical calcium response kinetics upon agonist pulse application were included in the data analysis. The GFP-tagged P2Y receptors are suitable for pharmacological and physiological studies, as previously reported (Tulapurkar et al., 2004, 2006; Zylberg et al., 2007).
1321N1 cell lines stably expressing the human P2Y6 receptors were grown as previously described in DMEM (5% FBS, 100 IU/ml penicillin, 100 μg/ml streptomycin, 1× Glutamax, 10 mM Hepes and 0.5 mg/ml G-418) at 37° C. in a humidified atmosphere containing 5% CO2 and 95% air (Gendron et al., 2003).
1321N1 cells (10×10^6 cells grown in 10 cm^2 dishes) were harvested by a brief trypsin/EDTA treatment, suspended in complete culture medium, and washed by centrifugation for 3 min at 100×g before being incubated with 1 μM Fluo 4/AM in 4.5 ml HBSS with Ca^2+ and Mg^2+ (Wisent, St. Bruno, QC) for 25 min at 37° C. Cells were washed by centrifugation (100×g, 3 min), suspended in HBSS containing Ca^2+ and Mg^2+, and incubated for 25 min at 37° C. Cells were washed and suspended in 16 ml of FIBSS containing Ca^+ and Mg^2+. Cell suspension (2 ml) was gently stirred in a quartz cuvette while [Ca^2+]i and monitored on a RF-5301 PC Shimadzu spectrofluorometer with Panormama fluorescence 1.1 software (Man-Tech, Guelph, ON). Excitation wavelengths of 488 nm and emission wavelength of 520 nm were used to measure changes in intracellular Fluo 4 fluorescence intensity (F). At the end of each recording, maximal fluorescence (Fmax) and minimal fluorescence (Fmin) were determined by adding successively 0.1% Triton X-100 and 50 mM EDTA to cell suspensions. The following equation from Grynkiewicz et al. (1985) was used to relate the fluorescence intensity to Ca^2+ levels: [Ca^2+]=Kd×(F−Fmin)/(Fmax−F), wherein Kd is the Ca^+ dissociation constant of the indicator (345 nM). […]

The target of another assay is P2Y6-receptor (Homo sapiens, UniProt Q15077). The conditions noted are these: Ginsburg-Shmuel et al., 2010; read-out: EC50 at P2Y6-receptor (literature); cited from earlier work.
Chain of P2Y6-receptor (Q15077 whole entry): as above

As for `COc1cn([C@@H]2O[C@H](COP(=O)(O)OP(=O)(O)O)[C@@H](O)[C@H]2O)c(=O)[nH]c1=O` [Analogue 12, 5-methoxyuridine diphosphate], the “Reduction of IOP” value in assay [1] is 31%.

Turning to `O=c1ccn([C@@H]2O[C@H](COP(=O)(O)OP(=O)(O)O)[C@@H](O)[C@H]2O)c(=O)[nH]1` [UDP, reference compound], the results for the EC50 on P2Y6-R and at P2Y6-receptor were 150 nM and 140 nM, respectively.

Regarding `[BH3-][P+](O)(OCC1OC(n2cc(OC)c(=O)[nH]c2=O)C(O)C1O)OP(=O)(O)O` (single isomer, unassigned) [Analogue 13A, 5-methoxyuridine-5′-O-(α-boranodiphosphate)], on P2Y6-R, the EC50 (as a rule, the concentration that produces a half-maximal response) is 8 nM. In addition, the “Potency of A-isomer relative to the corresponding B-isomer at P2Y6-R” value at P2Y6-R (ratio of EC50 values) is given as “more than 500 fold”. In assay [1], the “Duration of action (IOP reduction)” value is “about 4 h” and the “Reduction of IOP” value is listed as 45%.
